Data published in ChEMBL document CHEMBL1201862, “PubChem BioAssay data set” (2004).
Calls of active or inactive are those of the source.

Experiments:
HeLa = experiment: ATP-based viability loss in HeLa cells – cell-based, CellTiter-Glo luminescence, cherry-pick samples, cytotoxicity control for MITF activator project, dose response (AID 540259); type: functional; settings: Homo sapiens
BJ = experiment: cells; type: functional, cell-based; settings: Homo sapiens
[1] = HEK-293T viability loss after treatment – luminescence, T-cell screen hits, cytotoxicity control for TCR NF-kB inhibitor project, dose response (AID 489026); type: functional, cell-based;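 further: cells exposed to compound about 14 hours before the viability readout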
Cytochrome P450 2C19 = Cytochrome P450 2C19 (Homo sapiens, UniProt P33261); experiment: Cytochrome panel assay with activity outcomes. Panel member name: p450-cyp2c19 Compounds with AC50 equal or less than 10 uM are considered active; type: functional; settings: read-out: AC50
Cytochrome P450 2C9 = Cytochrome P450 2C9 (Homo sapiens, UniProt P11712)
Sequence of Cytochrome P450 2C9 (P11712 whole entry): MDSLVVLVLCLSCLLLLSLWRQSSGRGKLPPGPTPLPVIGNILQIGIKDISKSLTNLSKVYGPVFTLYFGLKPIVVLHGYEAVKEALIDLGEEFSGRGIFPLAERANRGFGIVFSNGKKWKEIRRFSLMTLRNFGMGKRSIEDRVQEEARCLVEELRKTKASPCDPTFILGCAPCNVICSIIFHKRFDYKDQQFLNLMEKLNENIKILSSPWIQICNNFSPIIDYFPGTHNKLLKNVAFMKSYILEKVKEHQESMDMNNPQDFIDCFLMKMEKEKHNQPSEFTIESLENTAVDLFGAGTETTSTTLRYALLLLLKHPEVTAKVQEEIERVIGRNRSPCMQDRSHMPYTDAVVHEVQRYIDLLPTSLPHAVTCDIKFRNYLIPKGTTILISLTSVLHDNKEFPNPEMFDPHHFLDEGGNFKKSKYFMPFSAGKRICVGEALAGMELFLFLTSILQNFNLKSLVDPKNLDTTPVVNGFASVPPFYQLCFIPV

Large T antigen = Large T antigen (Simian virus 40, UniProt P03070); type: functional, Betapolyomavirus macacae;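 further: Confirmatory-stage PubChem screen for compounds that inhibit SV40 T antigen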
Sequence of Large T antigen (P03070 whole entry): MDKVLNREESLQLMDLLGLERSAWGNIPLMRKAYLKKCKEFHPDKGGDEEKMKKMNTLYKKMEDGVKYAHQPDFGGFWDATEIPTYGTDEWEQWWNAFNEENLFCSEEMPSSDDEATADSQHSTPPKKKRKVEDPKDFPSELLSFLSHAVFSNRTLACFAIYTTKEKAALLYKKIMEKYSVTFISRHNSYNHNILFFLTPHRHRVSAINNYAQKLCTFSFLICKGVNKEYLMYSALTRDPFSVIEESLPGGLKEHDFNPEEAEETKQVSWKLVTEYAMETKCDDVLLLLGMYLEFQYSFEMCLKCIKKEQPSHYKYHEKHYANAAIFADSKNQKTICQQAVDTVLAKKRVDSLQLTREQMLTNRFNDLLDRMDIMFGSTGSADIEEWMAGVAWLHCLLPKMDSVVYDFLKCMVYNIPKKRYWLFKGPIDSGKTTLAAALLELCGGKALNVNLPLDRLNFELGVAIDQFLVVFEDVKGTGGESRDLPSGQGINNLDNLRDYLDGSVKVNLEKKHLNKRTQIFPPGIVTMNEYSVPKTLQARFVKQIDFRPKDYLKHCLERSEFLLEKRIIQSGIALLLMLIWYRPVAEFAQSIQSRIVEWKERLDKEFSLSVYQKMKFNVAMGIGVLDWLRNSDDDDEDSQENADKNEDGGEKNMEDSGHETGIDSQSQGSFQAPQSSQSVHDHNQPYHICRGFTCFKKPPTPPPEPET

[2] = target: Induced myeloid leukemia cell differentiation protein Mcl-1 (Homo sapiens, UniProt Q07820); type: functional
[3] = target: T1, Long-chain-fatty-acid--AMP ligase FadD28 (Mycobacterium tuberculosis, UniProt P9WQ59); experiment: Fluorescence polarization aasay to screen for inhibitors that compete for the binding of FadD28 to a bisubstrate Measured in Biochemical System Using Plate Reader - 2147-01_Inhibitor_Dose_CherryPick_Activity.; type: functional, Mycobacterium tuberculosis H37Rv
T1 sequence (P9WQ59 whole entry): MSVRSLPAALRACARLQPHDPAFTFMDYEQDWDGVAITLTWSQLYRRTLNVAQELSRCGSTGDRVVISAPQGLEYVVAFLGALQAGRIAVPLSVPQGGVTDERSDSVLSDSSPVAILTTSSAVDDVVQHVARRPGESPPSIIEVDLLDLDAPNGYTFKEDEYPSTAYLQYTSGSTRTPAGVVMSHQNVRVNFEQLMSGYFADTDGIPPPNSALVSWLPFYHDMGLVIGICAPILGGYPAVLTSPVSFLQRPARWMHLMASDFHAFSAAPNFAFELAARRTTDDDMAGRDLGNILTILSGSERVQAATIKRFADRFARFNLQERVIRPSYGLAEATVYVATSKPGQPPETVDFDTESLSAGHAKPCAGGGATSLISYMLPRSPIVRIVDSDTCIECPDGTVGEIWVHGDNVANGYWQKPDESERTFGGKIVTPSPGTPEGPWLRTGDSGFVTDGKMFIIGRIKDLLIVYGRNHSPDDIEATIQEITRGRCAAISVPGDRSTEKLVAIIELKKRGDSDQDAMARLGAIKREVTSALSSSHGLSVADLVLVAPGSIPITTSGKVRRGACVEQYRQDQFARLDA

Aminopeptidase N = target: T2, Aminopeptidase N (Plasmodium falciparum FcB1/Columbia, UniProt O96935); experiment: malaria alanyl aminopeptidase activity blockers – biochemical, fluorogenic H-Leu-NHMec substrate, 1536-well (AID 1445); set-up: species or system Plasmodium falciparum 3D7, 3D7
T2 sequence (O96935 whole entry): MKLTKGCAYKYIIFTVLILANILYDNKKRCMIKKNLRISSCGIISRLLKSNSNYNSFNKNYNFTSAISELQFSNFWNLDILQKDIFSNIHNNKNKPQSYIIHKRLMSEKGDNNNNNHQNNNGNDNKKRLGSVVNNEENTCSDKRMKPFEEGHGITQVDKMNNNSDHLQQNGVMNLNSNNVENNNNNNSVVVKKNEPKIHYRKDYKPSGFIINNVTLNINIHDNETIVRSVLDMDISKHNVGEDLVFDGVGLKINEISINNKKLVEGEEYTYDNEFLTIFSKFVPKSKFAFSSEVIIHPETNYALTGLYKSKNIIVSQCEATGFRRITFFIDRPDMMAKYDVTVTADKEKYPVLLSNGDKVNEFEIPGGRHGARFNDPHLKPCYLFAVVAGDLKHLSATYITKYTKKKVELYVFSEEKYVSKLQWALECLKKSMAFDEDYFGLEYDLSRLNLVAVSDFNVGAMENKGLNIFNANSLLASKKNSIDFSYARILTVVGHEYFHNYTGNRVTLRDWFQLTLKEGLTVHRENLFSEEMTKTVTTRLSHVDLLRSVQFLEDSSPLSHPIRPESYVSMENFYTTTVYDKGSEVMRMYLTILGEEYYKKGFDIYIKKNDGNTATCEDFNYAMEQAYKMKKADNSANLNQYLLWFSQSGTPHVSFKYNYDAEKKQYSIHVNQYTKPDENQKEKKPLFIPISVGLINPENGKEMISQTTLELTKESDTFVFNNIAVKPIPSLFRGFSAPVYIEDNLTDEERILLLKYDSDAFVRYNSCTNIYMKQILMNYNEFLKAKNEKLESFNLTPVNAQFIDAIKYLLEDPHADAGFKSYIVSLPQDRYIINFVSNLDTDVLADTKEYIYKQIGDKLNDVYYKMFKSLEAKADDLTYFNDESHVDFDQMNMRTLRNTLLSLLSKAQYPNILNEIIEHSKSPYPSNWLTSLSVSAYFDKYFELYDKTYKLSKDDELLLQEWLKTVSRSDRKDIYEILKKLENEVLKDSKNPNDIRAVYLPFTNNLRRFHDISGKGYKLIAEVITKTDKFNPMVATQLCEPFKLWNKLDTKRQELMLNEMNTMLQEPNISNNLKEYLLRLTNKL

[4] = target: DNA dC->dU-editing enzyme APOBEC-3A (Homo sapiens, UniProt P31941); experiment: Dose Response confirmation of small molecule APOBEC3A DNA Deaminase Inhibitors via a fluorescence-based single-stranded DNA deaminase assay. [Related pubchem assays (depositor defined):AID493011, AID493024]; type: functional
Sequence of DNA dC->dU-editing enzyme APOBEC-3A (P31941 whole entry): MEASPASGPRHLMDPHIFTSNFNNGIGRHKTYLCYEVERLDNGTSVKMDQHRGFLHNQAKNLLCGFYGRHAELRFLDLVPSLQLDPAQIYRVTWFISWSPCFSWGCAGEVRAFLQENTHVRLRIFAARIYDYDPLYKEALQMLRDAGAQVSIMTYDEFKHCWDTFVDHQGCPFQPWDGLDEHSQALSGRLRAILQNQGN

[5] = target: DNA dC->dU-editing enzyme APOBEC-3G (Homo sapiens, UniProt Q9HC16); type: functional;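 further: Dose-response counterscreen measuring inhibition of APOBEC3G DNA deaminase activity, run while confirming APOBEC3A inhibitors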
Sequence of DNA dC->dU-editing enzyme APOBEC-3G (Q9HC16 whole entry, the tested form may be a part): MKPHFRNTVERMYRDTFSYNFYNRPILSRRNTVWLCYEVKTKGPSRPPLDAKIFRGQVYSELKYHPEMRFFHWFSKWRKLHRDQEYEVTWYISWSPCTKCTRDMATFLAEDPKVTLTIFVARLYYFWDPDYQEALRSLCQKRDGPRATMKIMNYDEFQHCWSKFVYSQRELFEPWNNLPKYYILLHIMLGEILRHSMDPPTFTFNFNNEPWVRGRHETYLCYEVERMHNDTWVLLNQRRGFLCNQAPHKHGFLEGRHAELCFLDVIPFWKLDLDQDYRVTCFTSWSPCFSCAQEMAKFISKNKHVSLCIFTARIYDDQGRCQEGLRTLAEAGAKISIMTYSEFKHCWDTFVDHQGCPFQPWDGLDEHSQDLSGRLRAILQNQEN

[6] = target: T3, Carboxy-terminal domain RNA polymerase II polypeptide A small phosphatase 1 (Homo sapiens, UniProt Q9GZU7); experiment: CTDSP1 inhibitors, concentration-response, biochemical, absorbance readout, ultra-high-throughput screen actives (AID 540297); type: functional
T3 sequence (Q9GZU7 whole entry): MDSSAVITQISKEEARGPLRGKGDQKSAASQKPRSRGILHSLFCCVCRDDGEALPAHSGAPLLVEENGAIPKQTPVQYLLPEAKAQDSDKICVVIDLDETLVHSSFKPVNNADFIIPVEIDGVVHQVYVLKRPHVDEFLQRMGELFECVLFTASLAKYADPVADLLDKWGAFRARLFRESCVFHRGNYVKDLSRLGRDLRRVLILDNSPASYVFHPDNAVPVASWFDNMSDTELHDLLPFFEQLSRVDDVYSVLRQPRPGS

[7] = Trypanosoma cruzi growth suppression in host cells – NIH3T3 host cells, beta-gal luminescence, confirmation (AID 2044); type: functional, cell-based;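 further: intracellular parasites grown in NIH/3T3 mouse fibroblasts as host cells; luminescent beta-galactosidase reporter signal from transgenic T. cruzi replicating inside host cells; inhibitors lower the luminescence signal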
[8] = NIH3T3 cell viability loss – ATP luminescence, mouse fibroblasts, counter-screen, dose response (AID 2010); type: functional, cell-based;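 further: cells exposed to compound for about 90 hours before reading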
Cytochrome P450 1A2 = target: T4, Cytochrome P450 1A2 (Homo sapiens, UniProt P05177);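 further: PubChem cytochrome P450 panel assay, CYP1A2 panel member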
T4 sequence (P05177 whole entry): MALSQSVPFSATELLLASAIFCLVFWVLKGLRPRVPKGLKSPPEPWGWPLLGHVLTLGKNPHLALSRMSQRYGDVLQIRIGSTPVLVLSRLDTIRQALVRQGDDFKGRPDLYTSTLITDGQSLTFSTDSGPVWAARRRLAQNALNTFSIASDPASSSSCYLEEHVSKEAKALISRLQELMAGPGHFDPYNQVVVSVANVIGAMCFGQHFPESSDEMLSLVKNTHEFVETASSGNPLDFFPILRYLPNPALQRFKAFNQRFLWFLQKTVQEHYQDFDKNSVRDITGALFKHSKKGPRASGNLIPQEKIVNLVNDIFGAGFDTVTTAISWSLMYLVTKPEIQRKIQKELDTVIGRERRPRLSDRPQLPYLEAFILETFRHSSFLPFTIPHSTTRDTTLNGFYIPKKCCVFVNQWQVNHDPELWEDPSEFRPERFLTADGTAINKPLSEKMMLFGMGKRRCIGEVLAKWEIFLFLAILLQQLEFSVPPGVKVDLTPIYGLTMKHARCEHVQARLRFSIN

Cytochrome P450 3A4 = Cytochrome P450 3A4 (Homo sapiens, UniProt P08684);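 further: CYP3A4 tested as one member of a cytochrome P450 panel screen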
Sequence of Cytochrome P450 3A4 (P08684 whole entry): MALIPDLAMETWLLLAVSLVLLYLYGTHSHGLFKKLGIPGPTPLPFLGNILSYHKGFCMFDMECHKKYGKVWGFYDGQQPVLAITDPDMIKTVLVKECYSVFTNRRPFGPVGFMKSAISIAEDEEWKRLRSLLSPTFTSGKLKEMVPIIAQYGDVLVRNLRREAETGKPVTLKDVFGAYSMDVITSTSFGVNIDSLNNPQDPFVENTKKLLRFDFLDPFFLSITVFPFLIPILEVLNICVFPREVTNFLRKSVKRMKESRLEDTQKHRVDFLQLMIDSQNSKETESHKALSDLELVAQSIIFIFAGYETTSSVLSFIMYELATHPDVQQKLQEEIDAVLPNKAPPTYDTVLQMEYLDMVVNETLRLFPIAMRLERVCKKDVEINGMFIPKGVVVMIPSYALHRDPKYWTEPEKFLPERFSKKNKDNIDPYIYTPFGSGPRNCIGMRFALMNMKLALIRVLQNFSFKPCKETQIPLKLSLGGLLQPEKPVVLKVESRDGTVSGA

[9] = tested on: Streptococcus sp. 'group A'; experiment: Streptococcus pyogenes SK(-)GAS viability under kanamycin – luminescence, BacTiterGlo, confirmation, counter-screen for streptokinase expression inhibitor project, dose response (AID 1900); type: functional, organism-based
cells [10] = type: functional, cell-based
cells [11] = type: functional, cell-based; remark: listed apart in the source
Streptococcus = experiment: GAS UMAA2166 growth inhibition – luminescence, BacTiterGlo, counter-screen for streptokinase expression inhibitor project, dose response (AID 1915); type: functional, organism-based;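 further: potency for reduction of bacterial viability or growth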
Nonstructural protein 1 = Nonstructural protein 1 (Influenza A virus, UniProt Q194T2); type: functional, Influenza A virus (A/California/07/2009(H1N1))
Sequence of Nonstructural protein 1 (Q194T2 whole entry): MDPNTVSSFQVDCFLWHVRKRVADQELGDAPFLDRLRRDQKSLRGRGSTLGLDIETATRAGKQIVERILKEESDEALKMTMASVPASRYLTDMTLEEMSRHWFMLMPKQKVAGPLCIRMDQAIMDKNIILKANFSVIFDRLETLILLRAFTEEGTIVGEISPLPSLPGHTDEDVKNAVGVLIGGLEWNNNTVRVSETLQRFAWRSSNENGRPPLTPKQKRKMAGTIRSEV

[12] = target: T5, Microphthalmia-associated transcription factor (Homo sapiens, UniProt O75030); experiment: reducers of TRPM1 reporter luminescence, concentration series – cell-based, SK-MEL-5, cherry-picked, set 3, MITF inhibitor project, dose response (AID 493073); type: functional;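 further: SK-MEL-5 melanoma cells with luciferase driven by the MITF target TRPM1 promoter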
T5 sequence (O75030 whole entry): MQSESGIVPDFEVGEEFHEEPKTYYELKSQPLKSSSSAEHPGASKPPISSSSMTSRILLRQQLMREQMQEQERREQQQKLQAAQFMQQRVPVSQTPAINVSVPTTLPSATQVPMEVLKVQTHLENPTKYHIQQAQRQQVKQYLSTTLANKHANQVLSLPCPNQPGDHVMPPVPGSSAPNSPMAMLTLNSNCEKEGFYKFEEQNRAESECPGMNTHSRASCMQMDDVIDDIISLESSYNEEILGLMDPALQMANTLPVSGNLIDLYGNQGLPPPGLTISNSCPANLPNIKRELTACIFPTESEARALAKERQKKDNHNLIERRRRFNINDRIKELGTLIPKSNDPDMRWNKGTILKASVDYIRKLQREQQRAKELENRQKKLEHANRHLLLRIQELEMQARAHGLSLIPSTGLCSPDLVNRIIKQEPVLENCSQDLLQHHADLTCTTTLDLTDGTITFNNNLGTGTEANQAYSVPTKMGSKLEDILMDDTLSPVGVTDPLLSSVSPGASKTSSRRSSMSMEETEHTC

Fatty acid synthase [13] = target: T6, Fatty acid synthase (Homo sapiens, UniProt P49327); experiment: inhibition of human FAS-TE enzyme activity – biochemical, endpoint fluorescence intensity, uHTS hits, dose response (AID 624327); type: functional;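 further: fluorescence from hydrolysis of an O-methyl fluorescein acyl ester substrate by the enzyme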
T6 sequence (P49327 whole entry): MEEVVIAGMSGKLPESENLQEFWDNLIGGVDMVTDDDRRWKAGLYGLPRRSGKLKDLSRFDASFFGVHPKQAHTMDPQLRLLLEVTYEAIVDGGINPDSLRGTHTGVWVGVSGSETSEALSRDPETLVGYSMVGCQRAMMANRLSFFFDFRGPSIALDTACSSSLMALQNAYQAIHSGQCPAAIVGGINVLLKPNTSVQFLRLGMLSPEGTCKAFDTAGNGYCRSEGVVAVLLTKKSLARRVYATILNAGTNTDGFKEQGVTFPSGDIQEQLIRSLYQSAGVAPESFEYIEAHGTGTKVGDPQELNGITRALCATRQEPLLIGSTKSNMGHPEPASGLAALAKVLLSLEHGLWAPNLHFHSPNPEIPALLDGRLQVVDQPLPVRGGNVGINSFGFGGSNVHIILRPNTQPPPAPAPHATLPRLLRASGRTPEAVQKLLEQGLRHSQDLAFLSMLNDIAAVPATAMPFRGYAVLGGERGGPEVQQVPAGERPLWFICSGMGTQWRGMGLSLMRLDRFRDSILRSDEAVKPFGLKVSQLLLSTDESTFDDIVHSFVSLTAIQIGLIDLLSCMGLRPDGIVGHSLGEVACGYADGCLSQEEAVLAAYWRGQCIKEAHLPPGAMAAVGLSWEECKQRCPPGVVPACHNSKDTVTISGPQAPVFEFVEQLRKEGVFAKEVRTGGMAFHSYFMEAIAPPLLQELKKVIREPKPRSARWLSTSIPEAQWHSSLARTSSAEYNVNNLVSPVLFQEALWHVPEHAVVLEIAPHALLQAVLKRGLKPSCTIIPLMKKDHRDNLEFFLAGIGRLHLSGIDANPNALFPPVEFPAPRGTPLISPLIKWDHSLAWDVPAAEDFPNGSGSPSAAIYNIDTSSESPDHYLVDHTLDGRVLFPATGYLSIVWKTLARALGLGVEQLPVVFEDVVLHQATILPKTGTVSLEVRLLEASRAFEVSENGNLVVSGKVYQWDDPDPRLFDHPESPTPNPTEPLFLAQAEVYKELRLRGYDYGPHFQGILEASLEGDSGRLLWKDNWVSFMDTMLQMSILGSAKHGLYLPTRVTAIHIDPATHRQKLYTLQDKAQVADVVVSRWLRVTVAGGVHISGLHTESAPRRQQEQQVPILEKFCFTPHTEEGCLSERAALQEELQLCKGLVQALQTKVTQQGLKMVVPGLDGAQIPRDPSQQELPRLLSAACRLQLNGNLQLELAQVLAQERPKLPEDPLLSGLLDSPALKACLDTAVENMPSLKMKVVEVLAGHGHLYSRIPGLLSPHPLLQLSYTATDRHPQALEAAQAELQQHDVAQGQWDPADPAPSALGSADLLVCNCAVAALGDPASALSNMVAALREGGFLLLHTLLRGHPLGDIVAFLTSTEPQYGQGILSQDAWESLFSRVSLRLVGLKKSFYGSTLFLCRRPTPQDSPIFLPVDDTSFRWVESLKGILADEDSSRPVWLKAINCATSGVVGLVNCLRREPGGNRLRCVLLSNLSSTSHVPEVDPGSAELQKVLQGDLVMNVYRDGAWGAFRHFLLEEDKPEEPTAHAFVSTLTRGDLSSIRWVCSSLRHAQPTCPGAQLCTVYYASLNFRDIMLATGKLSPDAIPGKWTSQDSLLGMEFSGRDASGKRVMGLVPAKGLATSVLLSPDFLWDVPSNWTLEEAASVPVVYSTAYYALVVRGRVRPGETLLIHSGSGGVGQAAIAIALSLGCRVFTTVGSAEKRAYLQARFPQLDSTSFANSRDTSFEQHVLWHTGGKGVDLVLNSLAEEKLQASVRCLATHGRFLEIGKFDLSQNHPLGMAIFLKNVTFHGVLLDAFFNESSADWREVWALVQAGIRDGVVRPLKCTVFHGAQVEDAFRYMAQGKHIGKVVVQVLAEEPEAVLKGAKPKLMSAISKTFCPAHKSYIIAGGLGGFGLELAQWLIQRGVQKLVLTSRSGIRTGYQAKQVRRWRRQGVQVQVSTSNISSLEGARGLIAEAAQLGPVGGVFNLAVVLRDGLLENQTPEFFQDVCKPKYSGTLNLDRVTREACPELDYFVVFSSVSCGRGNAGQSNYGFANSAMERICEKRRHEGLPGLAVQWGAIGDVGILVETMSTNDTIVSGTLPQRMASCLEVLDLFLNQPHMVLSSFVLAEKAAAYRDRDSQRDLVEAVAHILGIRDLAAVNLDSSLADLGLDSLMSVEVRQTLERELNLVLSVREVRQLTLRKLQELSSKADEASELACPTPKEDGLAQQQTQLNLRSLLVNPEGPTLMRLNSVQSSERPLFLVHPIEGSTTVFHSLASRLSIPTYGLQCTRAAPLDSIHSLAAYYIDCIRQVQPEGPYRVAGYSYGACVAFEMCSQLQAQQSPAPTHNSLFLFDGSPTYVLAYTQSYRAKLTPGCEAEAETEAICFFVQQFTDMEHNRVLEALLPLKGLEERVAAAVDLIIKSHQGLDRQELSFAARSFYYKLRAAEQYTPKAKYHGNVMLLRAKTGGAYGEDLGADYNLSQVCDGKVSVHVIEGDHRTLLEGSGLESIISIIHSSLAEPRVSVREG

Fatty acid synthase [14] = target: T6, Fatty acid synthase; experiment: inhibition of human FAS-TE enzyme activity – biochemical, kinetic fluorescence intensity, dose response (AID 624326); type: functional;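 further: rate of fluorescence rise from hydrolysis of a fluorogenic O-methyl fluorescein ester substrate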

In the case of `Cc1ccccc1S(=O)(=O)Oc1ccc2ccc(O)cc2c1`, the AC50 (HeLa) is reported as 49.4 µM (active).
With `Cc1ccc(Nc2nc(-c3c(C)nc4ncccn34)cs2)cc1` the EC50 (BJ) was 60.6 µM (active), the IC50 [1] was 36.5 µM (inactive) and the AC50 (Cytochrome P450 2C19) was 0.0316 µM (inconclusive). The AC50 (Cytochrome P450 2C9) was “inconclusive”.
For `O=C1NN(c2ccccc2)C(=O)/C1=C\c1ccc(-c2cc([N+](=O)[O-])ccc2O)o1`, the IC50 (Large T antigen) was 20.7 µM (active), the IC50 [2] was 10.7 µM (active) and the AC50 [3] was 8.08 µM (active).
For `Cc1cccc(NC(=O)N(Cc2cc3cc(C)ccc3[nH]c2=O)CC2COCCO2)c1` (stereo not given), the IC50 (Aminopeptidase N) was 45.9 µM (active).
For `Clc1ccc(-c2ccc(SCc3ccccn3)nn2)cc1`, the AC50 (HeLa) was 50.7 µM (active).
In the case of `Cc1ccc(NC(=O)C(C)N2C(=O)c3ccccc3C2=O)cc1S(=O)(=O)N1CCOCC1` (stereo not given), the IC50 (Aminopeptidase N) is reported as 115 µM (active).
With `Cc1ccc2oc(Nc3nc(C)c(C)c(C)n3)nc2c1` the AC50 (HeLa) was 192 µM (active).
For `CC(C)CNC(=O)CCCc1c[nH]c2ccccc12.O=C(O)C(=O)O`, the AC50 (Cytochrome P450 2C9) was “inconclusive”.
With `CSc1nnc(-c2ccncc2)n1CCCN1CCCC1=O` the IC50 [4] was 2.76 µM (active) and the IC50 [5] was 3.35 µM (active).
With `C[n+]1ccc(C(=O)Nc2ccccc2Cl)cc1` the IC50 [4] was 2.01 µM (active), the IC50 [5] was 1.72 µM (active) and the IC50 [6] was 7.68 µM (active).
For `O=C(Nc1ncc(Cc2cc(Cl)ccc2Cl)s1)c1ccc([N+](=O)[O-])cc1`, the EC50 [7] was 1.31 µM (active), the EC50 [8] was > 30 µM (not active) and the AC50 (Cytochrome P450 1A2) was 5.62 µM (inconclusive). For the same molecule, the AC50 (Cytochrome P450 2C9) was “inconclusive”.
For `CS(=O)(=O)N1CCc2cc(C(=O)Nc3ccccc3Br)ccc21`, the AC50 (HeLa) was > 350 µM (inactive).
With `CCN(N=O)c1ccc(C=C2C=Cc3ccccc32)cc1` the AC50 (HeLa) was 68.9 µM (active).
With `Cc1ccc(S(=O)(=O)N2CCC(C(=O)NCCCOC(C)C)CC2)cc1` the AC50 (Cytochrome P450 3A4) was 25.1 µM (inconclusive) and the AC50 (Cytochrome P450 2C9) was “inconclusive”.
In the case of `CN1CCN(S(=O)(=O)c2cccc(C(=O)N(C)CC(=O)Nc3ccc(F)c(F)c3F)c2)CC1`, the IC50 [4] is reported as 3.94 µM (active) and the IC50 [5] is reported as 5.4 µM (active).
With `O=C(N/N=C/c1cc(Br)ccc1O)c1ccncc1` the IC50 (Aminopeptidase N) was 7.95 µM (active), the EC50 [9] was 3 µM (active) and the EC50 (cells [10]) was 17.7 µM (active). For the same molecule, the EC50 (cells [11]) was > 350 µM (not active), the EC50 (Streptococcus) was 3.78 µM (active) and the IC50 (Nonstructural protein 1) was 5.51 µM (active). For the same molecule, the AC50 [12] was 9.36 µM (active).
In the case of `C=CCOc1c(Br)cc(/C=N/Nc2ccc(C(=O)O)cc2)cc1OCC`, the AC50 [3] is reported as 62.7 µM (active), the IC50 (Fatty acid synthase [13]) is reported as 12.6 µM (active) and the IC50 (Fatty acid synthase [14]) is reported as 10.5 µM (active).
In the case of `O=C(N/N=C/C1CCCCC1)c1ccccn1`, the AC50 (Cytochrome P450 1A2) is reported as 17.8 µM (inconclusive) and the AC50 (Cytochrome P450 2C9) is reported as “inconclusive”.
